Source: ChEMBL document CHEMBL5104136, “Discovery of benzodioxane analogues as lead candidates of AIMP2-DX2 inhibitors” (Bioorg Med Chem Lett, 2022)

How the values were obtained:
NCI-H460 = experiment: Cytotoxicity against human NCI-H460 cells expressing median levels of AIMP2-DX2 assessed as reduction in cell viability incubated for 96 hrs; type: functional, cell-based; conditions: NCI-H460, 96 h
Cytochrome P450 1A2 = target: T1, Cytochrome P450 1A2 (Homo sapiens, UniProt P05177); experiment: Inhibition of CYP1A2 (unknown origin); type: ADME
T1 sequence (P05177 whole entry): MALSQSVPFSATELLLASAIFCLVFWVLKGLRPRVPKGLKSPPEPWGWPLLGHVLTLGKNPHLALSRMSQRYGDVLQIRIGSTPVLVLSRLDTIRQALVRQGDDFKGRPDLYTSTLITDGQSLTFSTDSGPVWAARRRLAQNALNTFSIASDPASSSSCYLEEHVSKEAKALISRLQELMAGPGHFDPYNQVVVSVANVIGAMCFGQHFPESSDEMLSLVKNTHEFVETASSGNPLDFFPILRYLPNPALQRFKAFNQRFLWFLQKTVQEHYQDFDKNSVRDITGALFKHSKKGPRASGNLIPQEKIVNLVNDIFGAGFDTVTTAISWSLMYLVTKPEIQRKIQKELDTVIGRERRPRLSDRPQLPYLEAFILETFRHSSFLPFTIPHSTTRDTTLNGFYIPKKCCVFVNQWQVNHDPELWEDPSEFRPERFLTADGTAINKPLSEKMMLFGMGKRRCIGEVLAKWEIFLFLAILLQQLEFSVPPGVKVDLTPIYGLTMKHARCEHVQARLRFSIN

A549 [1] = experiment: Cytotoxicity against human A549 cells expressing high levels of AIMP2-DX2 assessed as reduction in cell viability incubated for 96 hrs; type: functional, cell-based; conditions: A549, 96 h
Cytochrome P450 2C19 = Cytochrome P450 2C19 (Homo sapiens, UniProt P33261); experiment: Inhibition of CYP2C19 (unknown origin); type: ADME
Cytochrome P450 2C19, sequence (P33261 whole entry): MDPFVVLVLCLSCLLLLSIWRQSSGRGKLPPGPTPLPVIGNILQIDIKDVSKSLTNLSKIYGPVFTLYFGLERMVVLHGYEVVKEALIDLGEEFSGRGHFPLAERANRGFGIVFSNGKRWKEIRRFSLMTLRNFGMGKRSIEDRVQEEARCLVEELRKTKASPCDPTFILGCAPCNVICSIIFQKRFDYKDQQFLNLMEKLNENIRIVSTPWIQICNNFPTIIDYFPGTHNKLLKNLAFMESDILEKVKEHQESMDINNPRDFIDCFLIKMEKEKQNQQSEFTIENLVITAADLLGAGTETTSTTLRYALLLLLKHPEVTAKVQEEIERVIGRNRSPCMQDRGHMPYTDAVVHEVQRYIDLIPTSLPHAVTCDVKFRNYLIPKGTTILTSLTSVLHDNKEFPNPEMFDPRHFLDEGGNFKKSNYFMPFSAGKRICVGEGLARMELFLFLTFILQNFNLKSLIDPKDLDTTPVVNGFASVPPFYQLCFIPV

Cytochrome P450 3A4 = Cytochrome P450 3A4 (Homo sapiens, UniProt P08684); experiment: Inhibition of CYP3A4 (unknown origin); type: ADME
Cytochrome P450 3A4, sequence (P08684 whole entry): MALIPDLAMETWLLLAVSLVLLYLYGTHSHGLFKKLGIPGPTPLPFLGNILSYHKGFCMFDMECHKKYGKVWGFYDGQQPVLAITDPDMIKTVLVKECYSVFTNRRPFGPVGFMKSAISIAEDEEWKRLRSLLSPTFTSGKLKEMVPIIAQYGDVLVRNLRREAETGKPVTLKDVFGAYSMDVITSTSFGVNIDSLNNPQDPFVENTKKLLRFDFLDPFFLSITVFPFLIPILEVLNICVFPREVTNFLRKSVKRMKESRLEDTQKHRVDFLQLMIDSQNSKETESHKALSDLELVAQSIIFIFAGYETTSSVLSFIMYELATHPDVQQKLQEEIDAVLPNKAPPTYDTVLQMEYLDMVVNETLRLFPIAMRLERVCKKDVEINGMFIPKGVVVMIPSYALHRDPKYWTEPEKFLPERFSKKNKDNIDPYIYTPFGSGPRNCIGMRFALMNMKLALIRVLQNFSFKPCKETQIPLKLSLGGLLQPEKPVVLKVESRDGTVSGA

Cytochrome P450 2C9 = Cytochrome P450 2C9 (Homo sapiens, UniProt P11712); experiment: Inhibition of CYP2C9 (unknown origin); type: ADME
Cytochrome P450 2C9, sequence (P11712 whole entry): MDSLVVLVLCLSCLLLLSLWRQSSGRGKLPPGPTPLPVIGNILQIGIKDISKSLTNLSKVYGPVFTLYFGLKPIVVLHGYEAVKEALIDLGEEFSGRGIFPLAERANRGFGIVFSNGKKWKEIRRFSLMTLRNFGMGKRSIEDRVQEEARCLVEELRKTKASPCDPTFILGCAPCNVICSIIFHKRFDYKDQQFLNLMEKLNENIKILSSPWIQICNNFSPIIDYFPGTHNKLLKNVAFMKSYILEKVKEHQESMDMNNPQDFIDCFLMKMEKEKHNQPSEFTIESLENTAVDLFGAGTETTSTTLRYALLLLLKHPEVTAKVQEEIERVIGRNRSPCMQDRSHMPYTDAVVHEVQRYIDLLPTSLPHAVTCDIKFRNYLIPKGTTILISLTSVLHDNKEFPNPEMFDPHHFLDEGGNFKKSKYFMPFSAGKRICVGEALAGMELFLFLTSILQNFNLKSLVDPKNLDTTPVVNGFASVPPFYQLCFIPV

[2] = Plasma stability in mouse assessed as compound remaining measured after 2 hrs; type: ADME, cell-free; conditions: read-out: Stability
Cytochrome P450 2D6 = Cytochrome P450 2D6 (Homo sapiens, UniProt P10635); experiment: Inhibition of CYP2D6 (unknown origin); type: ADME
Cytochrome P450 2D6, sequence (P10635 whole entry): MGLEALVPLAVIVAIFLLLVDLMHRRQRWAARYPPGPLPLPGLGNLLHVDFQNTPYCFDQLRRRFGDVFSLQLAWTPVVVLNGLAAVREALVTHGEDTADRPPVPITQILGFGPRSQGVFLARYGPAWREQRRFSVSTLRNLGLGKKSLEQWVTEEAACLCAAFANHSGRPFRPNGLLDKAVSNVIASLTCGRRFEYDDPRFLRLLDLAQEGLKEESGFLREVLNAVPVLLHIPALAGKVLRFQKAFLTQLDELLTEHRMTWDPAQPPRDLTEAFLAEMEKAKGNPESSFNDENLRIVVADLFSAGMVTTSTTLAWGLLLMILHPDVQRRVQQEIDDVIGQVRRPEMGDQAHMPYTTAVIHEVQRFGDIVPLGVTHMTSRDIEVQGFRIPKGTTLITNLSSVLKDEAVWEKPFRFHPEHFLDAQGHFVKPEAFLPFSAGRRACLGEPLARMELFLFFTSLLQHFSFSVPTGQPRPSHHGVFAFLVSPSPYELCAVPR

[3] = Cytotoxicity against human WI-26 cells expressing low levels of AIMP2-DX2 assessed as reduction in cell viability incubated for 96 hrs; type: toxicity, cell-based; conditions: wi-26, 96 h
[4] = Metabolic stability in human assessed as half life; type: ADME
[5] = Plasma stability in human assessed as compound remaining measured after 2 hrs; type: ADME, cell-free; conditions: read-out: Stability
[6] = Metabolic stability in mouse assessed as half life; type: ADME
[7] = target: T2, Aminoacyl tRNA synthase complex-interacting multifunctional protein 2 (Homo sapiens, UniProt Q13155); experiment: Inhibition of AIMP2-DX2 in human A549 cells by luciferase assay; type: cell-based
T2 sequence (Q13155 whole entry, looked up, one chain of several): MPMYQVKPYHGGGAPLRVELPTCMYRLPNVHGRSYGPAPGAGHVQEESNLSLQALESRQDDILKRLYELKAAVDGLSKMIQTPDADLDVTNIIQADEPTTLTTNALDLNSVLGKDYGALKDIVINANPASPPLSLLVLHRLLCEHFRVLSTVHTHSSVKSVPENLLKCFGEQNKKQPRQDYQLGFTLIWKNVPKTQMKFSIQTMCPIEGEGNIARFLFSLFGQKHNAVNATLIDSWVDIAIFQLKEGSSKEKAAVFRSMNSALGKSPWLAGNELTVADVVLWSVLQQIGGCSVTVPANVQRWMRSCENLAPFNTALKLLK

A549 [8] = experiment: Inhibition of cell proliferation in human A549 cells; type: functional, cell-based
[9] = target: T2, Aminoacyl tRNA synthase complex-interacting multifunctional protein 2; experiment: Inhibition of AIMP2-DX2 in human A549 cells by nanoluciferase based assay; type: cell-based

Row | SMILES | EC50 (NCI-H460) [nM] | IC50 (Cytochrome P450 1A2) [nM] | EC50 (A549 [1]) [nM] | IC50 (Cytochrome P450 2C19) [nM] | IC50 (Cytochrome P450 3A4) [nM] | IC50 (Cytochrome P450 2C9) [nM] | remaining at 2 h [2] [%] | IC50 (Cytochrome P450 2D6) [nM] | Activity [3] | half-life [4] [min] | remaining at 2 h [5] [%] | half-life [6] [min] | IC50 [7] [nM] | IC50 (A549 [8]) [nM] | IC50 [9] [nM]
1 | CCc1ccc(CC(=O)NCC2COc3ccccc3O2)cc1 (stereo unspecified) | 204 | 417 | 688 | 461 | 36200 | 3460 | 94.2 | 29200 | Non-Toxic | 2.7 | 97 | 0.7 |  |  | 
2 | O=C(Cc1ccc(-c2ccccc2)cc1)NCC1COc2ccccc2O1 (stereo unspecified) | 150 | 1640 | 690 | 228 | > 50000 | 559 | 108 | 12300 | Non-Toxic | < 2.5 | 98.7 | 1.6 |  |  | 
3 | Cc1ccc2c(CC(=O)NCC3COc4ccccc4O3)coc2c1 (stereo unspecified) |  |  |  |  |  |  |  |  |  |  |  |  | 5680 |  | 
4 | Cc1cc(O)ccc1CC(=O)NCC1COc2ccccc2O1 (stereo unspecified) | 458 |  | 1100 |  |  |  |  |  | Non-Toxic |  |  |  |  |  | 
5 | Cc1cc2occ(CC(=O)NCC3COc4ccccc4O3)c2cc1C (stereo unspecified) | 370 |  | 1230 |  |  |  |  |  | Non-Toxic |  |  |  |  |  | 
6 | Cc1ccc(S(=O)(=O)N[C@@H](CC(C)C)C(=O)N2CCCOCCOCCOCC2)cc1 |  |  |  |  |  |  |  |  |  |  |  |  |  | 40100 | 
7 | O=C(O)c1cccc(-c2ccc(/C=N/NC(=O)C3COc4ccccc4O3)o2)c1 (stereo unspecified) | 2980 | > 50000 | 12000 | > 50000 | > 50000 | 49500 | 47.3 | > 50000 | Non-Toxic | 49.1 | 69.8 | 30.9 | 7380 |  | 10100
